Assay results taken from ChEMBL document CHEMBL4414672, “Synthesis of certain benzothieno[3,2-d]pyrimidine derivatives as a selective SIRT2 inhibitors” (Eur J Med Chem, 2020).
Converted amounts (≈) assume the structure as drawn.

Key:
[1] = test system: COLO 205; assay: Growth inhibition of human COLO205 cells at 10^-5 M incubated for 48 hrs by sulforhodamine B assay; assay type: functional; conditions: COLO 205, 48 h, read-out: GI
[2] = test system: OVCAR-4; assay: Growth inhibition of human OVCAR4 cells at 10^-5 M incubated for 48 hrs by sulforhodamine B assay; assay type: functional; conditions: OVCAR-4, 48 h, read-out: GI
[3] = test system: CCRF-CEM; assay: Growth inhibition of human CCRF-CEM cells at 10^-5 M incubated for 48 hrs by sulforhodamine B assay; assay type: functional; conditions: read-out: GI
[4] = test system: MOLT-4; assay: Growth inhibition of human MOLT4 cells at 10^-5 M incubated for 48 hrs by sulforhodamine B assay; assay type: functional; conditions: MOLT-4, 48 h, read-out: GI
[5] = test system: SW-620; assay: Growth inhibition of human SW620 cells at 10^-5 M incubated for 48 hrs by sulforhodamine B assay; assay type: functional; conditions: SW-620, 48 h, read-out: GI
[6] = test system: OVCAR-8; assay: Growth inhibition of human OVCAR8 cells at 10^-5 M incubated for 48 hrs by sulforhodamine B assay; assay type: functional; conditions: OVCAR-8, 48 h, read-out: GI
[7] = test system: 786-0; assay: Growth inhibition of human 786-0 cells at 10^-5 M incubated for 48 hrs by sulforhodamine B assay; assay type: functional; conditions: 786-0, 48 h, read-out: GI
[8] = test system: PC-3; assay: Growth inhibition of human PC3 cells at 10^-5 M incubated for 48 hrs by sulforhodamine B assay; assay type: functional; conditions: PC-3, 48 h, read-out: GI
[9] = test system: ACHN; assay: Growth inhibition of human ACHN cells at 10^-5 M incubated for 48 hrs by sulforhodamine B assay; assay type: functional; conditions: read-out: GI
[10] = test system: A549; assay: Growth inhibition of human A549/ATCC cells at 10^-5 M incubated for 48 hrs by sulforhodamine B assay; assay type: functional; conditions: A549, 48 h, read-out: GI
[11] = test system: NCI-H322M; assay: Growth inhibition of human NCI-H322M cells at 10^-5 M incubated for 48 hrs by sulforhodamine B assay; assay type: functional; conditions: read-out: GI
[12] = test system: HT-29; assay: Growth inhibition of human HT-29 cells at 10^-5 M incubated for 48 hrs by sulforhodamine B assay; assay type: functional; conditions: HT-29, 48 h, read-out: GI
[13] = test system: HCT-15; assay: Growth inhibition of human HCT15 cells at 10^-5 M incubated for 48 hrs by sulforhodamine B assay; assay type: functional; conditions: HCT-15, 48 h, read-out: GI
[14] = test system: A498; assay: Growth inhibition of human A498 cells at 10^-5 M incubated for 48 hrs by sulforhodamine B assay; assay type: functional; conditions: A498, 48 h, read-out: GI
[15] = test system: DU-145; assay: Growth inhibition of human DU145 cells at 10^-5 M incubated for 48 hrs by sulforhodamine B assay; assay type: functional; conditions: DU-145, 48 h, read-out: GI
[16] = test system: NCI-H522; assay: Growth inhibition of human NCI-H522 cells at 10^-5 M incubated for 48 hrs by sulforhodamine B assay; assay type: functional; conditions: NCI-H522, 48 h, read-out: GI
[17] = test system: SN12C; assay: Growth inhibition of human SN12C cells at 10^-5 M incubated for 48 hrs by sulforhodamine B assay; assay type: functional; conditions: read-out: GI
[18] = test system: IGROV-1; assay: Growth inhibition of human IGROV1 cells at 10^-5 M incubated for 48 hrs by sulforhodamine B assay; assay type: functional; conditions: IGROV-1, 48 h, read-out: GI
[19] = test system: HCC 2998; assay: Growth inhibition of human HCC2998 cells at 10^-5 M incubated for 48 hrs by sulforhodamine B assay; assay type: functional; conditions: HCC 2998, 48 h, read-out: GI
[20] = test system: OVCAR-5; assay: Growth inhibition of human OVCAR5 cells at 10^-5 M incubated for 48 hrs by sulforhodamine B assay; assay type: functional; conditions: OVCAR-5, 48 h, read-out: GI
[21] = test system: OVCAR-3; assay: Growth inhibition of human OVCAR3 cells at 10^-5 M incubated for 48 hrs by sulforhodamine B assay; assay type: functional; conditions: OVCAR-3, 48 h, read-out: GI
[22] = test system: SK-OV-3; assay: Growth inhibition of human SKOV3 cells at 10^-5 M incubated for 48 hrs by sulforhodamine B assay; assay type: functional; conditions: SK-OV-3, 48 h, read-out: GI
[23] = test system: RXF 393; assay: Growth inhibition of human RXF393 cells at 10^-5 M incubated for 48 hrs by sulforhodamine B assay; assay type: functional; conditions: RXF 393, 48 h, read-out: GI
[24] = test system: MDA-MB-231; assay: Growth inhibition of human MDA-MB-231 cells at 10^-5 M incubated for 48 hrs by sulforhodamine B assay; assay type: functional; conditions: MDA-MB-231, 48 h, read-out: GI
[25] = test system: EKVX; assay: Growth inhibition of human EKVX cells at 10^-5 M incubated for 48 hrs by sulforhodamine B assay; assay type: functional; conditions: read-out: GI
[26] = test system: K562; assay: Growth inhibition of human K562 cells at 10^-5 M incubated for 48 hrs by sulforhodamine B assay; assay type: functional; conditions: K562, 48 h, read-out: GI
[27] = test system: NCI-H226; assay: Growth inhibition of human NCI-H226 cells at 10^-5 M incubated for 48 hrs by sulforhodamine B assay; assay type: functional; conditions: NCI-H226, 48 h, read-out: GI
[28] = test system: NCI/ADR-RES; assay: Growth inhibition of human NCI/ADR-RES cells at 10^-5 M incubated for 48 hrs by sulforhodamine B assay; assay type: functional; conditions: read-out: GI
[29] = test system: SR; assay: Growth inhibition of human SR cells at 10^-5 M incubated for 48 hrs by sulforhodamine B assay; assay type: functional; conditions: read-out: GI
[30] = test system: Hs-578T; assay: Growth inhibition of human Hs 578T cells at 10^-5 M incubated for 48 hrs by sulforhodamine B assay; assay type: functional; conditions: read-out: GI
[31] = test system: HOP-62; assay: Growth inhibition of human HOP62 cells at 10^-5 M incubated for 48 hrs by sulforhodamine B assay; assay type: functional; conditions: HOP-62, 48 h, read-out: GI
[32] = test system: MDA-MB-468; assay: Growth inhibition of human MDA-MB-468 cells at 10^-5 M incubated for 48 hrs by sulforhodamine B assay; assay type: functional; conditions: MDA-MB-468, 48 h, read-out: GI
[33] = test system: HCT-116; assay: Growth inhibition of human HCT116 cells at 10^-5 M incubated for 48 hrs by sulforhodamine B assay; assay type: functional; conditions: HCT-116, 48 h, read-out: GI
[34] = test system: NCI-H460; assay: Growth inhibition of human NCI-H460 cells at 10^-5 M incubated for 48 hrs by sulforhodamine B assay; assay type: functional; conditions: NCI-H460, 48 h, read-out: GI
[35] = test system: UO-31; assay: Growth inhibition of human UO31 cells at 10^-5 M incubated for 48 hrs by sulforhodamine B assay; assay type: functional; conditions: UO-31, 48 h, read-out: GI
[36] = test system: MCF7; assay: Growth inhibition of human MCF7 cells at 10^-5 M incubated for 48 hrs by sulforhodamine B assay; assay type: functional; conditions: MCF7, 48 h, read-out: GI
[37] = test system: TK-10; assay: Growth inhibition of human TK10 cells at 10^-5 M incubated for 48 hrs by sulforhodamine B assay; assay type: functional; conditions: TK-10, 48 h, read-out: GI
[38] = test system: HOP-92; assay: Growth inhibition of human HOP92 cells at 10^-5 M incubated for 48 hrs by sulforhodamine B assay; assay type: functional; conditions: HOP-92, 48 h, read-out: GI
[39] = test system: KM12; assay: Growth inhibition of human KM12 cells at 10^-5 M incubated for 48 hrs by sulforhodamine B assay; assay type: functional; conditions: KM12, 48 h, read-out: GI
[40] = test system: NCI-H23; assay: Growth inhibition of human NCI-H23 cells at 10^-5 M incubated for 48 hrs by sulforhodamine B assay; assay type: functional; conditions: NCI-H23, 48 h, read-out: GI
[41] = test system: T47D; assay: Growth inhibition of human T47D cells at 10^-5 M incubated for 48 hrs by sulforhodamine B assay; assay type: functional; conditions: read-out: GI
[42] = test system: HL-60(TB); assay: Growth inhibition of human HL-60(TB) cells at 10^-5 M incubated for 48 hrs by sulforhodamine B assay; assay type: functional; conditions: HL-60, 48 h, read-out: GI
[43] = test system: CAKI-1; assay: Growth inhibition of human Caki1 cells at 10^-5 M incubated for 48 hrs by sulforhodamine B assay; assay type: functional; conditions: CAKI-1, 48 h, read-out: GI
[44] = test system: BT-549; assay: Growth inhibition of human BT549 cells at 10^-5 M incubated for 48 hrs by sulforhodamine B assay; assay type: functional; conditions: BT-549, 48 h, read-out: GI
[45] = test system: UO-31; assay: Cytotoxicity against human UO31 cells assessed as reduction in cell viability after 24 hrs by MTT assay; assay type: functional, cell-based; conditions: UO-31, 24 h
[46] = test system: MCF7; assay: Cytotoxicity against human MCF7 cells assessed as reduction in cell viability after 24 hrs by MTT assay; assay type: functional, cell-based; conditions: MCF7, 24 h

In the case of `O=C1CSC2=Nc3c(sc4ccc(Cl)cc34)C(c3cccc([N+](=O)[O-])c3)N12` (stereo unspecified), the inhibition of growth at 10 µM [1] is reported as -4.05%, the inhibition of growth at 10 µM [2] is reported as 2.1% and the inhibition of growth at 10 µM [3] is reported as -12%. For the same compound, the inhibition of growth at 10 µM [4] was 8.28%, the inhibition of growth at 10 µM [5] was -3.15% and the inhibition of growth at 10 µM [6] was 0.58%. The inhibition of growth at 10 µM [7] was -7.37%, the inhibition of growth at 10 µM [8] was 1.11% and the inhibition of growth at 10 µM [9] was 3.93%. The inhibition of growth at 10 µM [10] was -1.88%, the inhibition of growth at 10 µM [11] was 5.33% and the inhibition of growth at 10 µM [12] was -8.35%. It also gave an inhibition of growth at 10 µM [13] of -1.95%, an inhibition of growth at 10 µM [14] of -13.1% and an inhibition of growth at 10 µM [15] of -14.2%. The inhibition of growth at 10 µM [16] was 9.11%, the inhibition of growth at 10 µM [17] was 2.31% and the inhibition of growth at 10 µM [18] was 17.3%. For the same compound, the inhibition of growth at 10 µM [19] was -24.4%, the inhibition of growth at 10 µM [20] was -6.83% and the inhibition of growth at 10 µM [21] was 0.32%. For the same compound, the inhibition of growth at 10 µM [22] was 7.65%, the inhibition of growth at 10 µM [23] was -10.1% and the inhibition of growth at 10 µM [24] was 10.8%. It also gave an inhibition of growth at 10 µM [25] of 21.2%, an inhibition of growth at 10 µM [26] of 6.39% and an inhibition of growth at 10 µM [27] of 13.7%. It also gave an inhibition of growth at 10 µM [28] of 12.2%, an inhibition of growth at 10 µM [29] of 17.6% and an inhibition of growth at 10 µM [30] of -2.09%. The inhibition of growth at 10 µM [31] was 11%, the inhibition of growth at 10 µM [32] was 4.8% and the inhibition of growth at 10 µM [33] was -0.32%. For the same compound, the inhibition of growth at 10 µM [34] was -3.7%, the inhibition of growth at 10 µM [35] was 38.3% and the inhibition of growth at 10 µM [36] was 17.9%. It also gave an inhibition of growth at 10 µM [37] of -14.8%, an inhibition of growth at 10 µM [38] of -8.65% and an inhibition of growth at 10 µM [39] of -3.54%. For the same compound, the inhibition of growth at 10 µM [40] was 10.5%, the inhibition of growth at 10 µM [41] was 8.22% and the inhibition of growth at 10 µM [42] was 5.48%. It also gave an inhibition of growth at 10 µM [43] of 20% and an inhibition of growth at 10 µM [44] of -21.8%.

For `O=c1[nH]c(=S)[nH]c(-c2ccccc2)c1Cc1c(O)ccc2ccccc12` [CAMBINOL], the IC50 [45] was 98.6 µg/mL (≈ 274 µM) and the IC50 [46] was 33.9 µg/mL (≈ 94.2 µM).
